Test [1] deals with T1, human MASP1 (Homo sapiens, UniProt P48740).
T1 construct: Ig-kappa secretion signal (N, cleaved yes); made in house; host or cells: HEK293 (ATCC No. CRL-1573)
T1 sequence (P48740 297-448): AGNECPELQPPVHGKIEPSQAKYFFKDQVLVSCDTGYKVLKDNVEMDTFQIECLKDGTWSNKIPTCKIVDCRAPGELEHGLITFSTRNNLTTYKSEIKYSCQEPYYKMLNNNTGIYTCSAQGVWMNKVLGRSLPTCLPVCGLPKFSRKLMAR
T1 sequence (P48740 449-699): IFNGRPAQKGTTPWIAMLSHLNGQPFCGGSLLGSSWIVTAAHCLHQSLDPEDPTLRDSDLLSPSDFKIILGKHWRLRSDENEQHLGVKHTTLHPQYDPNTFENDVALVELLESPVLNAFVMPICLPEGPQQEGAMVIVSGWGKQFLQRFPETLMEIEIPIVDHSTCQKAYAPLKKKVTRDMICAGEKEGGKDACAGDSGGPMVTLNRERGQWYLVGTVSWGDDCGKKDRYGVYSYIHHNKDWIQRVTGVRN
Description: Biochemical human MASP1 assay (FRET substrate). The conditions noted are these: average IC50. An excerpt: (§1) 2.1 Recombinant Expression and Protein Production of Recombinant Human MASP1 and MASP2 Active Proteases.
(§2) The MASP1 or MASP2 expression vectors were transfected into the HEK293 (ATCC No. CRL-1573) cell line using Lipofectamine LTX® Reagent (Thermo-Fischer), as described by the manufacturer. […] The MASP1 and MASP2 proteins were purified from the conditioned media by affinity chromatography on Ni-NTA Superflow resin (Qiagen) as described by the manufacturer.
2.2 Biochemical Human MASP1 Assay
(§3) Recombinant human MASP1 enzyme produced in the HEK 293 cells was diluted in the reaction buffer (50 mM HEPES pH 8,0; 100 mM NaCl; 0.01% CHAPS; 0.5 mM Gluthathione) to the concentration of 20 nM and 25 μl was transferred into each single well of 384-well white microtiter plate (Greiner Bio One 781075). 1 μl of the inhibitor compound solution (dissolved in DMSO, at the corresponding concentration) or pure DMSO as a control was added to the same wells. […] The microtiter plate was incubated for 60-120 min at the temperature of 32 C. The increase of fluorescence intensity was measured in appropriate fluorescence plate reader (e.g. TECAN Ultra) using excitation wavelength of 320 nm and emission wavelength of 420 nm. IC50 values were calculated from percentage of inhibition of human MASP1 activity as a function of test compound concentration.

In test [2] the test system is Human C3-[…]. Description: C3 deposition assay, human serum on mannan-coated plates. The class given is biochemical. The settings on record: average IC50, read-out: Human C3-DEPOSITION SERUM IC50. As for the experimental part:
(§4) 3. C3 Deposition Assay (Human, Rat, Mouse, Dog, Mini-Pig)
(§5) The C3 deposition assay was conducted essentially as described (reference). Multi well plates (Greiner-Nunc 384 Maxi Sorp #464718) were coated over night with Mannan from Saccharomyces cerevisiae (Sigma M7504, 10 μg/mL in 0.05 M carbonate-bicarbonate buffer, pH 9.6) at 4° C. Wells were washed three times with TBS and subsequently incubated for 2 hours with 50 μL of 1% bovine serum albumin (BSA) in Tris-buffered saline (TBS) at 37° C. in order to block non-specific binding. After this step and each of the following incubation steps wells were washed three times with C3 wash buffer (TBS; 0.05% Tween 20; 5 mM CaCl2). […] When appropriately developed the color reaction was stopped by addition of 25 μL of stop solution (Sigma S5814) and quantified on a photometer by measuring absorption at a wavelength of 450 nm. Antibodies were diluted in C3 wash buffer supplemented with 0.5% BSA.

Test [3] addresses T2, rat MASP1 (Rattus norvegicus, UniProt Q8CHN8).
T2 construct: Ig-kappa secretion signal (N, cleaved yes); made in house; host or cells: HEK293 (ATCC No. CRL-1573)
T2 sequence (Q8CHN8 302-453 limits assumed): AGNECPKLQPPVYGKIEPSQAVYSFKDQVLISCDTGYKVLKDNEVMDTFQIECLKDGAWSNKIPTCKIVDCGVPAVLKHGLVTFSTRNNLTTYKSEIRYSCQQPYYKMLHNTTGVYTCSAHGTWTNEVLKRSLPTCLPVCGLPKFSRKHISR
T2 sequence (Q8CHN8 454-704 limits assumed): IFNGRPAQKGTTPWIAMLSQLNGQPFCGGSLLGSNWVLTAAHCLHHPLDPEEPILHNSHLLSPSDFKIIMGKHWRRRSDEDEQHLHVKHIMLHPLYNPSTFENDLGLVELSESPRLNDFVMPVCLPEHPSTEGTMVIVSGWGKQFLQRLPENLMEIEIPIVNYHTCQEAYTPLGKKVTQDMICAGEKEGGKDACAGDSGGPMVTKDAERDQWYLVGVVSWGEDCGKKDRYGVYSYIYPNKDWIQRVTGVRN
Description: Biochemical rat MASP1 assay (FRET substrate). The conditions noted are these: average IC50; recombinant rat MASP1, FRET substrate. The text has this:
(§6) 4. Biochemical Rat MASP-1 and MASP-2 Assay
(§7) 4.1 Recombinant Expression and Protein Production of Recombinant Human and Rat MASP1 and MASP2 Active Proteases.
A truncated cDNA sequence of rat MASP1 encoding the fragment corresponding to the amino acids 302-704 with an C-terminal His Tag and N-terminal Ig-kappa secretion signal (SEQ ID No: 4) was subcloned into the mammalian expression vector pcDNA3.1 (Invitrogen).
(§8) The MASP1 or MASP2 expression vectors were transfected into the HEK293 (ATCC No. CRL-1573) cell line using Lipofectamine LTX® Reagent (Thermo-Fischer), as described by the manufacturer. The mature form of the recombinant rat MASP1 and MASP2 proteases were secreted into the culture medium. The MASP1 and MASP2 proteins were purified from the conditioned media by affinity chromatography on Ni-NTA Superflow resin (Qiagen) as described by the manufacturer.
4.2 Biochemical Rat MASP1 Assay.
Recombinant rat MASP1 enzyme produced in the HEK 293 cells was diluted in the reaction buffer (50 mM HEPES pH 8,0; 100 mM NaCl; 0.01% CHAPS; 0.5 mM Gluthathione) to the concentration of 4 nM and 25 μl was transferred into each single well of 384-well white microtiter plate (Greiner Bio One 781075). 1 μl of the inhibitor compound solution (dissolved in DMSO, at the corresponding concentration) or pure DMSO as a control was added to the same wells. The enzymatic reaction was initiated by addition of 25 μl of 40 μM solution of the FRET substrate Dabcyl-[…]-Glu(Edans)-NH2 (SEQ ID NO: 8); (Dabcyl—4-((4-(dimethylamino)phenyl)azo)benzoic acid; Edans—5-[(2-Aminoethyl) amino]naphthalene-1-sulfonyl; custom synthesis by Jerini Peptide Technologies, Berlin) in the reaction buffer. The microtiter plate was incubated for 60-120 min at the temperature of 32 C. The increase of fluorescence intensity was measured in appropriate fluorescence plate reader (e.g. TECAN Ultra) using excitation wavelength of 340 nm and emission wavelength of 490 nm. IC50 values were calculated from percentage of inhibition of rat […] activity as a function of test compound concentration.

Test [4] deals with T3, rat MASP2 (Rattus norvegicus, UniProt Q9JJS8).
T3 construct: Ig-kappa secretion signal (N, cleaved yes); made in house; host or cells: HEK293 (ATCC No. CRL-1573)
T3 sequence (Q9JJS8 296-443): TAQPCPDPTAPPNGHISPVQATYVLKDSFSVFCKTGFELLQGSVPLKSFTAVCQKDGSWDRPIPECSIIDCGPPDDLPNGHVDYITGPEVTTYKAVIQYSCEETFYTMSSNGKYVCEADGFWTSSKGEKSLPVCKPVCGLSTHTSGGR
T3 sequence (Q9JJS8 444-685): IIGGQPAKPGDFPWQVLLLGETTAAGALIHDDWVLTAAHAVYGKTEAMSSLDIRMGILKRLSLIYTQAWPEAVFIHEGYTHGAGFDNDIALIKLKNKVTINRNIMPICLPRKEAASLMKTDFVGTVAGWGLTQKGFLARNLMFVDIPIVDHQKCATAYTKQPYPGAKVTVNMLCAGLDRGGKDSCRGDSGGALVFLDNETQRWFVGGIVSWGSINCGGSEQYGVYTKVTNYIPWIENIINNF
Kind of test: Biochemical rat MASP2 assay (FRET substrate). The conditions noted are these: average IC50; recombinant rat MASP2, FRET substrate.
Text: as §6, §7, §8
4.3 Biochemical Rat MASP2 Assay.
Recombinant rat MASP2 enzyme produced in the HEK 293 cells was diluted in the reaction buffer (50 mM HEPES pH 8,0; 100 mM NaCl; 0.01% CHAPS; 0.5 mM Gluthathione) to the concentration of 20 nM and 25 μl was transferred into each single well of 384-well white microtiter plate (Greiner Bio One 781075). 1 μl of the inhibitor compound solution (dissolved in DMSO, at the corresponding concentration) or pure DMSO as a control was added to the same wells. The enzymatic reaction was initiated by addition of 25 μl of 30 μM solution of the FRET substrate Abz-IEGRTSED-(Lys)Dnp-NH2 (SEQ ID NO: 9); (ABZ—2-aminobenzoyl; DNP_2,4-dinitrophenyl; custom synthesis by Jerini Peptide Technologies, Berlin) in the reaction buffer. The microtiter plate was incubated for 60-120 min at the temperature of 32 C. The increase of fluorescence intensity was measured in appropriate fluorescence plate reader (e.g. TECAN Ultra) using excitation wavelength of 320 nm and emission wavelength of 420 nm. IC50 values were calculated from percentage of inhibition of rat […] activity as a function of test compound concentration.

The test system of test [5] is rat C3-[…]. Description: C3 deposition assay, rat serum on mannan-coated plates. Type of test: biochemical. The conditions noted are these: average IC50. As for the experimental part:
as §4, §5

Test [6] concerns the target T4, human MASP2 (Homo sapiens, UniProt O00187).
T4 construct: Ig-kappa secretion signal (N, cleaved yes); made in house; host or cells: HEK293 (ATCC No. CRL-1573)
Kind of test: Biochemical human MASP2 assay (FRET substrate). The conditions noted are these: average IC50.
Text: as §1, §2
2.3 Biochemical Human MASP2 Assay
as §3, with “MASP2” for “MASP1”, “340” for “320”, “490” for “420”

Counter-ions that a name gives are not always drawn. Bridge positions count the residues as written; N and C are the ends. Square brackets hold non-standard residues; d marks the D form. Peptide text beside a SMILES is read from it. PEG9 = NCCOCCOCCOCCOCCOCCOCCOCCOCCOCCC(=O)O; tBuAla = CC(C)(C)C[C@H](N)C(=O)O; Pen = CC(C)(S)[C@H](N)C(=O)O; NMeC = CN[C@@H](CS)C(=O)O; Sar = CNCC(=O)O

T4 sequence (O00187 297-444): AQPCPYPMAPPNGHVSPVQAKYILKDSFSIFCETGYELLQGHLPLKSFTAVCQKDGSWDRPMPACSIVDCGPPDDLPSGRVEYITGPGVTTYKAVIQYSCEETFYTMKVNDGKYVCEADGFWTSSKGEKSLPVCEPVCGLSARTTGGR
T4 sequence (O00187 445-686): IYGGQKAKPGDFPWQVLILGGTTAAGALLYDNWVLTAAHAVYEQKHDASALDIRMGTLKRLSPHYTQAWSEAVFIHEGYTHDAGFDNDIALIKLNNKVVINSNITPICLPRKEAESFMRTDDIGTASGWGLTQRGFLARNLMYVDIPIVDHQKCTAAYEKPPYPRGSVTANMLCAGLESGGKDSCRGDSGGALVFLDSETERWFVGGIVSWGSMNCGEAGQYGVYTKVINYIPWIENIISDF

Regarding `CCC(C)[C@H](NC(=O)[C@H]1NC(=O)[C@H]([C@@H](C)CC)NC(=O)[C@@H]2C[C@@H]3CCCC[C@@H]3N2C(=O)[C@@H]2CCCN2C(=O)[C@H](CC(C)C)NC(=O)[C@H](CO)NC(=O)[C@H](CCCNC(=N)N)NC(=O)[C@H](CO)NC(=O)[C@@H](NC(=O)[C@@H](NC(=O)[C@H](C)NC)[C@@H](C)CC)CSSC1(C)C)C(=O)N1CCC[C@H]1C(=O)N[C@@H](CC(=O)NCc1ccccc1)C(N)=O` (stereo in doubt) [Example 462], the IC50 in test [1] amounted to 12 nM; in test [2], 61 nM; in test [3], 160 nM; in test [4] it was 150 nM.

Turning to `CC[C@H](C)[C@H](NC(=O)[C@H](C)N)C(=O)N[C@H]1CSSC(C)(C)[C@@H](C(=O)N[C@H](C(=O)N2CCC[C@H]2C(=O)N[C@@H](CC(=O)O)C(=O)O)[C@@H](C)CC)NC(=O)[C@H]([C@@H](C)CC)NC(=O)[C@@H]2C[C@@H]3CCCC[C@@H]3N2C(=O)[C@@H]2CCCN2C(=O)[C@H](CC(C)C)NC(=O)[C@H](CO)NC(=O)[C@H](CCCNC(=N)N)NC(=O)[C@H](CO)NC1=O` [Example 29, AIC+SRSLP-(Oic)-I-(Pen)+IPD-OH (HCl Salt)], the IC50 in test [1] was 2.45 nM; in test [2] it was 6.99 nM; in test [3], 10.5 nM; in test [4], 17.4 nM; in test [5], 196 nM.

Regarding `CC[C@H](C)[C@H](NC(=O)CNC)C(=O)N[C@H]1CSSC(C)(C)[C@@H](C(=O)N[C@H](C(=O)N2CCC[C@H]2C(=O)NCCOCCOCCOCCOCCOCCOCCOCCOCCOCCC(N)=O)[C@@H](C)CC)NC(=O)[C@H]([C@@H](C)CC)NC(=O)[C@@H]2CCCN2C(=O)[C@@H]2CCCN2C(=O)[C@H](CC(C)(C)C)NC(=O)[C@H](CO)NC(=O)[C@H](CCCNC(=N)N)NC(=O)[C@H](CO)NC1=O` [Example 44, ((N-Me)G)-IC+SRS-((tBu)A)-PPI-(Pen)+IP-(PEG9(31 Atoms))-NH2] (H-[Sar]ICSRS[tBuAla]PPI[Pen]IP[PEG9]-NH2; disulfide 3-11), the IC50 in test [6] was 73 nM; in test [2], 68.5 nM; in test [3], 87 nM; in test [4], 35 nM.

Take `CC[C@H](C)[C@H](NC(=O)[C@H](C)N)C(=O)N[C@H]1CSSC[C@@H](C(=O)N[C@H](C(=O)N2CCC[C@H]2C(=O)N[C@@H](CC(=O)O)C(N)=O)[C@@H](C)CC)N(C)C(=O)[C@H]([C@@H](C)CC)NC(=O)[C@@H]2CCCN2C(=O)[C@@H]2CCCN2C(=O)[C@H](CC(C)(C)C)NC(=O)[C@H](CO)NC(=O)[C@H](CCCNC(=N)N)NC(=O)[C@H](CO)NC1=O` [Example 48, AIC+SRS-((tBu)A)-PPI-((N-Me)C)+IPD-NH2] (H-AICSRS[tBuAla]PPI[NMeC]IPD-NH2; disulfide 3-11): the IC50 in test [1] turned out to be 1.95 nM; in test [6], 225 nM; in test [2], 102 nM; in test [3], 51.5 nM.

Regarding `CC[C@H](C)[C@H](NC(=O)[C@H](C)N)C(=O)N[C@H]1CSSC(C)(C)[C@@H](C(=O)N[C@H](C(=O)N2CCC[C@H]2C(=O)N[C@@H](CC(=O)O)C(N)=O)[C@@H](C)CC)NC(=O)[C@H]([C@@H](C)CC)NC(=O)[C@@H]2C[C@@H]3CCCC[C@@H]3N2C(=O)[C@@H]2CCCN2C(=O)[C@H](CC(C)C)NC(=O)[C@H](CO)NC(=O)[C@H](CCCNC(=N)N)NC(=O)[C@H](CO)NC1=O` [Example 75, AIC+SRSLP-(Oic)-I-(Pen)+IPD-NH2], the IC50 in test [1] turned out to be 2.23 nM; in test [2] it was 32 nM; in test [3], 35 nM; in test [4], 34.9 nM; in test [5], 183 nM.

For the compound “AIC+SRSLP-(Oic)-I-(Pen)+IPD-NH2 [Example 27]”, the IC50 turned out to be 8.5 nM in test [2] and 146 nM in test [5].

For “AIC+SRSLP-(Oic)-I-(Pen)+IPD-OH [Example 5]”, the values for the half-inhibitory concentration (IC50) in test [2] and in test [5] were 10.3 nM and 214 nM, respectively.

The IC50 is the concentration at which inhibition is half-maximal.

For the origin of these results see US11667675B2, “MASP inhibitory compounds and uses thereof” (Bayer Aktiengesellschaft, priority 2019, dated 2023).
